Here are results for 19 compounds from PubChem BioAssay (NCI).

Among the test systems are 786-0 renal; A549 NSCLC; MDA-N; RXF 393 renal; SF-295 CNS; SR leukemia; T-47D breast; U251 CNS; HCC-2998 colon; SNB-78 CNS.
What all share (experiment): inhibition of tumour cell growth, NCI panel, 48 h

Values joined by “and” are separate entries in the source; they are usually repeats but may differ in a detail not shown here. Equal values may be shown once.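 Cells were grown in 96-well plates and exposed to each compound for 48 hours at five concentrations; endpoints were interpolated linearly between bracketing concentrations, or set to the highest concentration if not reached. GI50 is the concentration that inhibits growth by half. At the TGI there is no net growth.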

For `CC(C)=CC1C(COC(=O)c2ccccc2Cl)C1(C)C` (stereo unspecified), the TGI in the experiment with 786-0 renal is more than 100 µM; in the experiment with A549 NSCLC, more than 100 µM; in the experiment with MDA-N it was more than 100 µM; in the experiment on RXF 393 renal, 65.6 µM; in the experiment with SF-295 CNS it was more than 100 µM; in the experiment on SR leukemia, more than 100 µM. In addition, the TGI in the experiment with T-47D breast was more than 100 µM; with U251 CNS, 90.2 µM.

On to `CCN(CC)CCCC(C)Nc1c2ccc(Cl)cc2nc2cc(Cl)ccc12` (stereo unspecified), for which the TGI in the experiment on A549 NSCLC came to 18.1 µM; in the experiment with HCC-2998 colon it was 5.49 µM; with RXF 393 renal, 13.2 µM; in the experiment with SF-295 CNS, 8.49 µM; in the experiment with SNB-78 CNS, 26.6 µM; in the experiment with U251 CNS, 14.3 µM.

As to `CSC1=C(SC)C(=O)c2cn(C)c(=O)cc2C1=O`, the TGI with A549 NSCLC amounted to 36.9 µM; with HCC-2998 colon, 35.8 µM; in the experiment on MDA-N, 3.06 µM; with RXF 393 renal, 3.43 µM; with SF-295 CNS it was 26 µM; in the experiment on T-47D breast, 3.99 µM. This compound displayed a TGI in the experiment on U251 CNS of 26.2 µM.

In the case of `O=S(=O)(Nc1nccs1)c1ccc([As](=O)(O)O)cc1`, the TGI in the experiment on 786-0 renal, in the experiment on A549 NSCLC, in the experiment with RXF 393 renal, in the experiment on SF-295 CNS, with T-47D breast and in the experiment with U251 CNS was more than 100 µM in each case.

For `CC(C)C(=O)Nc1ccc(-c2nc(-c3cccc(OCCN4CCOCC4)c3)c(-c3ccnc(Br)c3)[nH]2)cc1`, the GI50 with A549 NSCLC is 3.73 µM; in the experiment on HCC-2998 colon it was 3.21 µM; in the experiment with RXF 393 renal it was 1.24 µM; in the experiment with SF-295 CNS, 1.09 µM; in the experiment on SR leukemia, 1.83 µM; in the experiment with T-47D breast it was 2.68 µM. Also, the GI50 in the experiment with U251 CNS is 2.27 µM. Besides, the TGI in the experiment on A549 NSCLC is more than 100 µM; in the experiment on HCC-2998 colon, 11.4 µM; in the experiment on RXF 393 renal it was 2.91 µM; in the experiment with SF-295 CNS it was 2.88 µM; with SR leukemia, 7.09 µM; in the experiment with T-47D breast it was 34.2 µM. The TGI with U251 CNS came out at 14.5 µM.

As to `COc1ccc(N2C(=O)C(=O)N(C)C2=O)c2ccccc12`, the TGI in the experiment on A549 NSCLC, with HCC-2998 colon, in the experiment on RXF 393 renal, with SF-295 CNS, with SR leukemia and with T-47D breast was more than 10 µM in each case. Besides, the TGI in the experiment with U251 CNS is more than 10 µM.

As for `CC(C(=O)NCCNC(=O)CCCC(=O)N(C)O)C(=O)NCCNC(=O)CCCC(=O)N(C)O`, the TGI in the experiment on A549 NSCLC, with HCC-2998 colon, in the experiment with MDA-N, in the experiment on RXF 393 renal, in the experiment with SF-295 CNS and in the experiment on SR leukemia was more than 100 µM in each case. Besides, the TGI with T-47D breast and in the experiment with U251 CNS was more than 100 µM each time.

For the compound `CC(=O)Nc1c2sscc-2n(C)c1=O`, the TGI in the experiment with 786-0 renal was 3.24 µM; in the experiment on A549 NSCLC, 3.56 µM; in the experiment with HCC-2998 colon, 1.89 µM; in the experiment with MDA-N it was 3.13 µM; in the experiment with RXF 393 renal it was 3.18 µM; in the experiment with SF-295 CNS, 2.65 µM. Besides, the TGI in the experiment with T-47D breast is 3.19 µM; in the experiment with U251 CNS it was 2.54 µM.

With `CC[C@@]1(O)C(=O)OCc2c1cc1n(c2=O)Cc2cc3c(CN(C)C)c(O)ccc3nc2-1`, the GI50 with A549 NSCLC is 0.0545 µM and 0.08 µM; in the experiment with MDA-N, 0.0241 µM and 0.119 µM and 0.0221 µM; in the experiment on RXF 393 renal, 0.0188 µM and 0.0182 µM and 0.0775 µM; with SF-295 CNS, < 0.01 µM and 0.0104 µM and 0.0304 µM; in the experiment with SNB-78 CNS, 0.0867 µM; in the experiment on T-47D breast, < 0.0117 µM and 0.0189 µM and 0.0186 µM. Also, the TGI in the experiment with MDA-N is 0.777 µM and 5.2 µM and 0.902 µM; in the experiment on SNB-78 CNS, 2.49 µM.

With `COC1=CC(=O)c2c(c(COC(C)=O)cn2C)C1=O`, the TGI with A549 NSCLC is 0.509 µM; in the experiment with MDA-N, 0.253 µM; in the experiment on RXF 393 renal, 0.309 µM; in the experiment on SF-295 CNS it was 0.0692 µM; with SR leukemia it was 0.545 µM; in the experiment on T-47D breast, 3.67 µM. The compound also yielded a TGI with U251 CNS of 0.734 µM.

`OC(c1ccccc1)C1CC2C=CC1C2` (stereo unspecified): the TGI in the experiment on A549 NSCLC, with RXF 393 renal, in the experiment with SF-295 CNS, with SNB-78 CNS and in the experiment on U251 CNS was more than 100 µM in each case.

In the case of `CC1(CO)C(O)CCC2(C)C1C(O)CC1CC3CC12CCC3(O)CO` (stereo unspecified), the TGI in the experiment on A549 NSCLC was more than 225 µM; in the experiment on HCC-2998 colon, more than 225 µM; with RXF 393 renal, more than 225 µM; in the experiment on SF-295 CNS, more than 104 µM; in the experiment with SNB-78 CNS, more than 225 µM; in the experiment with U251 CNS it was more than 225 µM.

As for `O=[N+]([O-])c1ccc(Cc2nc3cc4ccccc4cc3[nH]2)cc1C(F)(F)F`, the TGI with 786-0 renal was determined as 25.4 µM; with A549 NSCLC, 64.8 µM; in the experiment on HCC-2998 colon, 30.1 µM; in the experiment on RXF 393 renal it was 32.1 µM; in the experiment on SF-295 CNS, 29 µM; in the experiment with T-47D breast, 21.6 µM. Further, the TGI in the experiment on U251 CNS came out at 37.3 µM.

As to `O=[N+]([O-])c1ccc(NNN=Nc2ccc(-c3nc4ccccc4[nH]3)cc2)c([N+](=O)[O-])c1`, the TGI in the experiment with 786-0 renal, in the experiment on A549 NSCLC, in the experiment with HCC-2998 colon, in the experiment with MDA-N, in the experiment with RXF 393 renal and with SF-295 CNS was more than 100 µM throughout. For the same compound, the TGI in the experiment on SR leukemia, in the experiment on T-47D breast and with U251 CNS was more than 100 µM throughout.

With `O=c1ccc2c(Cl)cccc2o1`, the TGI in the experiment on A549 NSCLC, with HCC-2998 colon, in the experiment on MDA-N, with RXF 393 renal, in the experiment with SF-295 CNS and with SR leukemia was more than 100 µM each time. Besides, the TGI in the experiment on T-47D breast and with U251 CNS was more than 100 µM in each case.

For the compound `CN(CC(=O)O)CC(=O)O`, the TGI with 786-0 renal, in the experiment with A549 NSCLC, with HCC-2998 colon, with MDA-N, in the experiment on RXF 393 renal and with SF-295 CNS was more than 100 µM each time. Moreover, the TGI in the experiment with T-47D breast and in the experiment with U251 CNS was more than 100 µM each time.

For the compound `Clc1ccc(OCc2nnc3sc(SSc4nn5c(COc6ccc(Cl)cc6)nnc5s4)nn23)cc1`, the TGI in the experiment with 786-0 renal, in the experiment on A549 NSCLC, in the experiment on HCC-2998 colon, in the experiment on SF-295 CNS, with SR leukemia and in the experiment on T-47D breast was more than 100 µM each time. The compound further had a TGI in the experiment on U251 CNS of more than 100 µM. For the same compound, the GI50 was 16.1 µM with HCC-2998 colon and 14.2 µM in the experiment with SR leukemia.

In the case of `Fc1ccc(Nc2ncc(-c3cc(F)c(Cl)cc3Cl)s2)cc1Cl`, the GI50 in the experiment on A549 NSCLC is 14.9 µM; in the experiment with RXF 393 renal it was 6.67 µM; in the experiment with SF-295 CNS, 15.9 µM; in the experiment with T-47D breast, more than 100 µM; in the experiment with U251 CNS it was 6.09 µM. Besides, the TGI with A549 NSCLC is 31.3 µM; in the experiment on RXF 393 renal, 24.3 µM; in the experiment with SF-295 CNS, 31 µM; with T-47D breast, more than 100 µM; in the experiment with U251 CNS, 23.7 µM.

Turning to `C1=Nc2ccccc2Cn2nncc21`, the TGI in the experiment with A549 NSCLC, in the experiment with HCC-2998 colon, with RXF 393 renal, in the experiment with SR leukemia and with U251 CNS was more than 100 µM each time.
